Measured values as given in PubChem BioAssay AID264 (DTP/NCI, 2004).
Several values for one entry are separate records, joined by “and”; a condition that tells them apart may be missing. Identical values can stand only once. Results filed as inconclusive are left out.

System: nude mice, LX-1 lung xenograft intrarenal, tumor weight T/C
Experiment: NCI In Vivo Anticancer Drug Screen. Data for tumor model Human Lung LX-1 Xenograft (intrarenal inoculation) in NU/NU Swiss (nude) mice
Conditions: endpoint: mean tumor weight change, higher = larger tumour
Outline: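 Antitumor effect is expressed as a ratio: the mean tumor measurement of the drug-treated group relative to that of the vehicle-dosed control group.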

[1] = dose: 300.0 mg/kg/injection, schedule: Q04DX003 (sc), vehicle: suspension in saline
[2] = dose: 600.0 mg/kg/injection, schedule: Q04DX003 (sc), vehicle: suspension in saline
[3] = dose: 1200.0 mg/kg/injection, schedule: Q04DX003 (sc), vehicle: suspension in saline
[4] = dose: 600.0 mg/kg/injection, schedule: Q04DX003 (sc), vehicle: saline
[5] = dose: 300.0 mg/kg/injection, schedule: Q04DX003 (sc), vehicle: saline with Tween-80
[6] = dose: 600.0 mg/kg/injection, schedule: Q04DX003 (sc), vehicle: saline with Tween-80
[7] = dose: 1200.0 mg/kg/injection, schedule: Q04DX003 (sc), vehicle: saline with Tween-80
[8] = dose: 2400.0 mg/kg/injection, schedule: Q04DX003 (sc), vehicle: saline with Tween-80

CCOC(=O)C(N)CSC(=O)NC (stereo not given)
T/C (dose: 50.0 mg/kg/injection, schedule: Q04DX003 (sc), vehicle: saline): 165 % of control
T/C (dose: 400.0 mg/kg/injection, schedule: Q04DX003 (sc), vehicle: saline): 94 % of control

O=C1OC(=O)[C@H]2[C@@H]1[C@H]1C=C[C@@H]2OC1=O
T/C [1]: 90 % of control
T/C [2]: 104 % of control
T/C [3]: 72 % of control

COC1/C=C/O[C@@]2(C)Oc3c(C)c(O)c4c(O)c(cc(O)c4c3C2=O)NC(=O)/C(C)=C\C=C\[C@H](C)C(O)[C@@H](C)[C@@H](O)[C@@H](C)[C@H](OC(C)=O)[C@@H]1C (stereo not given in full)
T/C [1]: 60 % of control
T/C [2]: 84 % of control
T/C [3]: 53 % of control
T/C (dose: 2400.0 mg/kg/injection, schedule: Q04DX003 (sc), vehicle: suspension in saline): 64 % of control

CN(C)[C@@H]1C(=O)C(C(N)=O)=C(O)[C@@]2(O)C(=O)C3=C(O)c4c(O)ccc(Cl)c4[C@@](C)(O)[C@H]3C[C@@H]12
T/C (dose: 300.0 mg/kg/injection, schedule: Q04DX003 (sc), vehicle: saline): 81 % of control
T/C [4]: 200 % of control
T/C (dose: 1200.0 mg/kg/injection, schedule: Q04DX003 (sc), vehicle: saline): 220 % of control

O=C(O)CC(NC(=O)CP(=O)(O)O)C(=O)O (stereo not given)
T/C (dose: 25.0 mg/kg/injection, schedule: Q01DX010 (sc), vehicle: saline): 51 % of control
T/C (dose: 50.0 mg/kg/injection, schedule: Q01DX010 (sc), vehicle: saline): 90 % of control
T/C (dose: 200.0 mg/kg/injection, schedule: Q01DX010 (sc), vehicle: saline): 57 % of control
T/C (dose: 400.0 mg/kg/injection, schedule: Q01DX010 (sc), vehicle: saline): 174 % of control

CC(C)CC(NC(=O)CF)C(=O)O (stereo not given)
T/C (dose: 5.0 mg/kg/injection, schedule: Q04DX003 (sc), vehicle: saline): 104 % of control
T/C (dose: 10.0 mg/kg/injection, schedule: Q04DX003 (sc), vehicle: saline): 111 % of control
T/C (dose: 20.0 mg/kg/injection, schedule: Q04DX003 (sc), vehicle: saline): 70 % of control

O=C1NCC(Br)C(=O)N1 (stereo not given)
T/C (dose: 150.0 mg/kg/injection, schedule: Q04DX003 (sc), vehicle: saline with Tween-80): 99 % of control
T/C [5]: 90 % of control

CCOC(=O)CNC(=O)CCCCSc1ncnc2nc[nH]c12
T/C [5]: 80 % of control
T/C [6]: 86 % of control
T/C [7]: 85 % of control
T/C [8]: 114 % of control

CO[C@H]1C[C@](C)(O)Cc2cc3c(c(O)c21)C(=O)c1c(O)cc2c(c1C3=O)O[C@@H]1O[C@@]2(C)[C@H](O)[C@@H](N(C)C)[C@@H]1O
T/C (dose: 3.12 mg/kg/injection, schedule: Q01DX010 (sc), vehicle: other): 68 % of control
T/C (dose: 6.25 mg/kg/injection, schedule: Q01DX010 (sc), vehicle: other): 63 % of control and 70 % of control
T/C (dose: 12.5 mg/kg/injection, schedule: Q01DX010 (sc), vehicle: other): 23 % of control

N=C(N)CCCCCCCCC(=N)N
T/C (dose: 4.69 mg/kg/injection, schedule: Q04DX003 (sc), vehicle: saline): 91 % of control
T/C (dose: 9.38 mg/kg/injection, schedule: Q04DX003 (sc), vehicle: saline): 92 % of control
T/C (dose: 18.75 mg/kg/injection, schedule: Q04DX003 (sc), vehicle: saline): 94 % of control

CC(=O)O[C@H]1C(=O)[C@@]2(C)[C@H]([C@H](OC(=O)c3ccccc3)[C@]3(O)C[C@H](OC(=O)[C@H](O)[C@@H](NC(=O)c4ccccc4)c4ccccc4)C(C)=C1C3(C)C)[C@]1(OC(C)=O)CO[C@@H]1C[C@@H]2O
T/C (dose: 25.0 mg/kg/injection, schedule: Q01DX010 (sc), vehicle: Klucel (hydroxypropylcellulose) (HPC)): 40 % of control
T/C (dose: 400.0 mg/kg/injection, schedule: Q01DX010 (sc), vehicle: Klucel (hydroxypropylcellulose) (HPC)): 14 % of control

CCOC(=O)C(CC(C)C)NC(=O)C(N)Cc1ccc(N(CCCl)CCCl)cc1 (stereo not given)
T/C (dose: 15.0 mg/kg/injection, schedule: Q04DX003 (sc), vehicle: water): 72 % of control
T/C (dose: 30.0 mg/kg/injection, schedule: Q04DX003 (sc), vehicle: water): 55 % of control

CCCCc1ccc2nc(NC(=O)OC)[nH]c2c1
T/C (dose: 100.0 mg/kg/injection, schedule: Q01DX010 (sc), vehicle: saline with Tween-80): 53 % of control and 78 % of control
T/C (dose: 1600.0 mg/kg/injection, schedule: Q01DX010 (sc), vehicle: saline with Tween-80): 84 % of control

COc1ccc(C[C@H](N)C(=O)NC2C(CO)OC(n3cnc4c(N(C)C)ncnc43)C2O)cc1 (stereo not given in full)
T/C (dose: 100.0 mg/kg/injection, schedule: Q04DX003 (sc), vehicle: saline): 109 % of control
T/C (dose: 200.0 mg/kg/injection, schedule: Q04DX003 (sc), vehicle: saline): 74 % of control

Cc1cn(C2CC3[O][Sn]([c]4ccccc4)([c]4ccccc4)[O]CC3O2)c(=O)[nH]c1=O (stereo not given)
T/C [4]: 107 % of control
T/C (dose: 2400.0 mg/kg/injection, schedule: Q04DX003 (sc), vehicle: saline): 47 % of control

ClC(Cl)(Cl)C1=NCc2nnn(Cc3ccccc3)c2N1
T/C [5]: 72 % of control
T/C [6]: 67 % of control
T/C [7]: 90 % of control
T/C [8]: 36 % of control
